From patent publication US20240000812A1, “PHARMACOLOGICAL AGENTS FOR TREATING CONDITIONS OF THE EYE” (PLEX PHARMACEUTICALS, INC., priority 2020, published 2024)
Counter-ions that a name gives are not always drawn.

What was measured:
[1] = tested on: experimental myopia in rabbits; conditions: intravitreal administration of exogenous dopamine; cited from earlier work
bovine lens extracts = experiment: UVC/H2O2-induced aggregation of bovine lens extracts; assay type: biochemical; conditions: 7 minutes exposure
Text: FIG. 2 represents data relating to UVC/H2O2-induced aggregation of bovine lens extracts, as described in Example 4.

COMT = conditions: known COMT inhibitors, cited from earlier work
[2] = tested on: experimental myopia in chickens; conditions: intravitreal administration; cited from earlier work
[3] = tested on: experimental myopia in guinea pigs; conditions: systemic administration; cited from earlier work
[4] = tested on: chicks with form deprivation myopia; experiment: Form deprivation myopia chick model, scleral proteoglycan synthesis (35SO4 incorporation into glycosaminoglycans); assay type: in vivo; conditions: high (2.25 mM) and low (0.75 mM) dose, 20 ul intravitreal daily for seven days; measured four hours after the final dose
Protocol: Three compounds (quinpirole, CAP4719, and L-DOPA) were tested in chicks for their effects on scleral proteoglycan synthesis, as a measure of scleral growth, axial elongation and myopia. CAP4719 has the following structure: […]
Form deprivation myopia is induced in the right eyes of 4-5 days old chicks by the application of translucent occluders. […] At the end of the treatment period, chicks are sacrificed, their sclera labelled in organ culture with 35SO4, and scleral proteoglycan synthesis measured by CPC-precipitation of newly synthesized glycosaminoglycans. Radioactivity is measured using scintillation counting, and the amount of radioactivity compared (as CPM) between right and left eyes of all groups of animals by paired t-tests and between different groups using ANOVA. […]
The right eyes were goggled (myopic) and injected with either the high dose, low dose, or vehicle of the CAP4719 compound. Proteoglycan synthesis was measured as the amount of 35SO4 (cpm) incorporated into glycosaminoglycans four hours after the final dose. […]

In the case of NCCc1ccc(O)c(O)c1 [dopamine], the “Development of experimental myopia” value [1] is given as “inhibit the development of experimental myopia”.
With Cc1ccc(C(=O)c2cc(O)c(O)c([N+](=O)[O-])c2)cc1 [CAP1160] the “Prevention of UVC/H2O2-induced aggregation of bovine lens extracts” value (bovine lens extracts) was “prevents UVC/H2O2-induced aggregation of bovine lens extracts”.
In the case of Cc1c(Cl)c(C)[n+]([O-])c(Cl)c1-c1noc(-c2cc(O)c(O)c([N+](=O)[O-])c2)n1 [Opicapone], the Ki (COMT) is given as 1 nM.
In the case of O=C(NCCCNC(=O)c1ccc(O)c(O)c1)c1ccc(O)c(O)c1 [Bifunctional inhibitor, N,N′-(propane-1,3-diyl)bis(3,4-dihydroxybenzamide)], the IC50 (COMT; read-out: IC50 (concentration of the inhibitor that affords a 50% inhibition in the activity of the enzyme, COMT)) is given as 300 nM.
For N[C@@H](Cc1ccc(O)c(O)c1)C(=O)O [L-Dopa], the “Development of experimental myopia” value [2] is listed as “inhibit the development of experimental myopia” and the “Development of experimental myopia” value [3] is listed as “inhibit the development of experimental myopia”.
For Cc1ccc(C(=O)c2cc(OC(=O)CCCP(=O)([O-])[O-])c(O)c([N+](=O)[O-])c2)cc1.[Na+].[Na+] [CAP4719], the “Block of the increase in proteoglycan synthesis in the goggled (myopic) right eye” value [4] was “did not completely block the increase in proteoglycan synthesis” and the “Percentage increase in proteoglycan synthesis over the left (control) eye, compared with the vehicle” value [4] was “appears to be lower”.
In the case of O=C(CCN1CCN(c2cccc(C(F)(F)F)c2)CC1)c1cc(O)c(O)c([N+](=O)[O-])c1 [BIA 3-335, 1-(3,4-Dihydroxy-5-nitrophenyl)-3-{4-[3-(trifluoromethyl)phenyl]-1-piperazinyl}-1-propanone dihydrochloride], the Ki (COMT) is given as 6 nM.
